target: human RIP1 kinase domain (2-375) (Homo sapiens (Human), UniProt Q13546); assay: biochemical; format: biochemical; settings: RIP1 Ki
Method in brief: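 50 nM purified kinase domain from baculovirus-infected insect cells, incubated 2 h with compound in 50 mM Hepes pH 7.5, 30 mM MgCl2, 1 mM DTT, 50 uM ATP, 0.002% Brij-35, 0.5% DMSO. ADP formation read by Transcreener FP at 633 nm excitation. Ki^app fitted with the Morrison tight-binding equation.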

Sequence of human RIP1 kinase domain (2-375) (Q13546 2-375): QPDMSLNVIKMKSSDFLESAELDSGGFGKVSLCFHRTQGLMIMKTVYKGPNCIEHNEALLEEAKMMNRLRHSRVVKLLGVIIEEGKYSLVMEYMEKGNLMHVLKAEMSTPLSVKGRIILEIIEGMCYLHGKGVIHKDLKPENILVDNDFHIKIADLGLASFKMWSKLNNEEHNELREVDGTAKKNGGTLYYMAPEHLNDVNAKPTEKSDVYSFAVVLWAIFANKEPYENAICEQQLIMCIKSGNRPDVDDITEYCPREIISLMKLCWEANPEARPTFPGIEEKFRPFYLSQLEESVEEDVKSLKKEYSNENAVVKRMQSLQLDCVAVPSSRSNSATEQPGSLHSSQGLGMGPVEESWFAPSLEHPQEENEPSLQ

Ki	SMILES
4.9 nM	CN1C(=O)[C@@H](NC(=O)c2n[nH]c3ccc(C(F)(F)F)cc23)COc2ccccc21 [Example 115, (S)—N-(5-methyl-4-oxo-2,3,4,5-tetrahydrobenzo[b][1,4]oxazepin-3-yl)-5-(trifluoromethyl)-1H-indazole-3-carboxamide]

same assay, conditions: human RIP1 kinase domain (2-375), 50 uM ATP, 2 hours incubation, Transcreener ADP assay; read-out: RIP1 Ki

Ki	SMILES
371 nM	CN1C(=O)[C@@H](NC(=O)c2nnc3n2CC(C(F)(F)C(F)(F)F)CC3)COc2ccccc21 (stereo partly drawn) [Example 116, N—((S)-5-methyl-4-oxo-2,3,4,5-tetrahydrobenzo[b][1,4]oxazepin-3-yl)-6-(perfluoroethyl)-5,6,7,8-tetrahydro-[1,2,4]triazolo[4,3-a]pyridine-3-carboxamide]
5.6 nM	CN1C(=O)[C@@H](NC(=O)c2n[nH]c3ncc(C(F)(F)C(F)(F)F)cc23)COc2ccccc21 [Example 117, (S)—N-(5-methyl-4-oxo-2,3,4,5-tetrahydrobenzo[b][1,4]oxazepin-3-yl)-5-(perfluoroethyl)-1H-pyrazolo[3,4-b]pyridine-3-carboxamide]
50.4 nM	CN1C(=O)[C@@H](NC(=O)c2nnn3c2CC2(CCCC2)C3)COc2ccccc21 [Example 118, (S)—N-(5-methyl-4-oxo-2,3,4,5-tetrahydrobenzo[b][1,4]oxazepin-3-yl)-4′H,6′H-spiro[cyclopentane-1,5′-pyrrolo[1,2-c][1,2,3]triazole]-3′-carboxamide]
201 nM	CN1C(=O)[C@@H](NC(=O)c2nnn3c2CC(c2ccccc2)C3)COc2ccccc21 (stereo partly drawn) [Example 119, N—((S)-5-methyl-4-oxo-2,3,4,5-tetrahydrobenzo[b][1,4]oxazepin-3-yl)-5-phenyl-5,6-dihydro-4H-pyrrolo[1,2-c][1,2,3]triazole-3-carboxamide]
2100 nM	CN1C(=O)[C@@H](NC(=O)c2nnn3c2CC2(CCCC2)C3)CCn2nccc21 [Example 120, (S)—N-(4-methyl-5-oxo-5,6,7,8-tetrahydro-4H-pyrazolo[1,5-a][1,3]diazepin-6-yl)-4′H,6′H-spiro[cyclopentane-1,5′-pyrrolo[1,2-c][1,2,3]triazole]-3′-carboxamide]
8700 nM	CN1C(=O)[C@@H](NC(=O)c2nnn3c2CC(c2ccccc2)C3)CCn2nccc21 (stereo partly drawn) [Example 121, N—((S)-4-methyl-5-oxo-5,6,7,8-tetrahydro-4H-pyrazolo[1,5-a][1,3]diazepin-6-yl)-5-phenyl-5,6-dihydro-4H-pyrrolo[1,2-c][1,2,3]triazole-3-carboxamide]
19.5 nM	CC(C)n1ncc2cnc(C(=O)N[C@H]3COc4ccccc4N(C)C3=O)nc21 [Example 122, (S)-1-isopropyl-N-(5-methyl-4-oxo-2,3,4,5-tetrahydrobenzo[b][1,4]oxazepin-3-yl)-1H-pyrazolo[3,4-d]pyrimidine-6-carboxamide]
268 nM	CN1C(=O)[C@@H](NC(=O)c2nc3n(n2)C(c2ccccc2)COC3)COc2ccccc21 (stereo partly drawn) [Example 123, N—((S)-5-methyl-4-oxo-2,3,4,5-tetrahydrobenzo[b][1,4]oxazepin-3-yl)-5-phenyl-5,6-dihydro-8H-[1,2,4]triazolo[5,1-c][1,4]oxazine-2-carboxamide]
76.8 nM	CN1C(=O)[C@@H](NC(=O)c2nc3n(n2)C(c2ccccc2)CC3)CCn2nccc21 (stereo partly drawn) [Example 124, N—((S)-4-methyl-5-oxo-5,6,7,8-tetrahydro-4H-pyrazolo[1,5-a][1,3]diazepin-6-yl)-5-phenyl-6,7-dihydro-5H-pyrrolo[1,2-b][1,2,4]triazole-2-carboxamide]
237 nM	CN1C(=O)[C@@H](NC(=O)c2cc3c(cn2)cnn3CC(F)(F)F)COc2ccccc21 [Example 127, N-[(3S)-5-methyl-4-oxo-2,3-dihydro-1,5-benzoxazepin-3-yl]-1-(2,2,2 trifluoroethyl)pyrazolo[4,3-c]pyridine-6-carboxamide]
61.4 nM	CN1C(=O)[C@@H](NC(=O)c2cc3c(cn2)cnn3C2CCOC2)COc2ccccc21 (stereo partly drawn) [Example 128, N—((S)-5-methyl-4-oxo-2,3,4,5-tetrahydrobenzo[b][1,4]oxazepin-3-yl)-1-(tetrahydrofuran-3-yl)-1H-pyrazolo[4,3-c]pyridine-6-carboxamide]
127 nM	CN1C(=O)C(NC(=O)c2nnc(Cc3ccccc3)[nH]2)CCn2nc3c(c21)CCCC3 (stereo not shown) [Example 133, 5-benzyl-N-(1-methyl-2-oxo-2,3,4,5,8,9,10,11-octahydro-1H-[1,3]diazepino[1,2-b]indazol-3-yl)-4H-1,2,4-triazole-3-carboxamide]
73.6 nM	CN1C(=O)C(NC(=O)c2ncn(Cc3ccccc3)n2)CCn2nc(C3CC3(F)F)cc21 (stereo not shown) [Example 134, 1-benzyl-N-(2-(2,2-difluorocyclopropyl)-4-methyl-5-oxo-5,6,7,8-tetrahydr-4H-pyrazolo[1,5-a][1,3]diazepin-6-yl)-1H-1,2,4-triazole-3-carboxamide]
390 nM	CN1C(=O)C(NC(=O)c2cn(Cc3ccccc3)nn2)CCn2nc3c(c21)CCCC3 (stereo not shown) [Example 135, 1-benzyl-N-(1-methyl-2-oxo-2,3,4,5,8,9,10,11-octahydro-1H-[1,3]diazepino[1,2-b]indazol-3-yl)-1H-1,2,3-triazole-4-carboxamide]
110 nM	CN1C(=O)C(NC(=O)c2ncn(Cc3ccccc3)n2)CCn2nc3c(c21)CCCC3 (stereo not shown) [Example 136, 1-benzyl-N-(1-methyl-2-oxo-2,3,4,5,8,9,10,11-octahydro-1H-[1,3]diazepino[1,2-b]indazol-3-yl)-1H-1,2,4-triazole-3-carboxamide]
1800 nM	CN1C(=O)C(NC(=O)c2n[nH]c3c2C[C@@H](C(F)(F)F)CC3)CCn2nc3c(c21)CCCC3 (stereo partly drawn) [Example 137, (5S)—N-(1-methyl-2-oxo-2,3,4,5,8,9,10,11-octahydro-1H-[1,3]diazepino[1,2-b]indazol-3-yl)-5-(trifluoromethyl)-4,5,6,7-tetrahydro-1H-indazole-3-carboxamide]
3700 nM	CCOc1ccc2[nH]nc(C(=O)N[C@H]3COc4ccccc4N(C)C3=O)c2n1 [Example 138, 5-ethoxy-N-[(3S)-5-methyl-4-oxo-2,3-dihydro-1,5-benzoxazepin-3-yl]-1H-pyrazolo[4,3-b]pyridine-3-carboxamide]
29.2 nM	CC(C)c1ccc2[nH]nc(C(=O)N[C@H]3COc4ccccc4N(C)C3=O)c2n1 [Example 139, 5-isopropyl-N-[(3S)-5-methyl-4-oxo-2,3-dihydro-1,5-benzoxazepin-3-yl]-1H-pyrazolo[4,3-b]pyridine-3-carboxamide]
316 nM	CN1C(=O)C(NC(=O)c2ncn(Cc3ccccc3)n2)CCn2nc3c(c21)CS(=O)(=O)C3 (stereo not shown) [Example 140, 1-benzyl-N-(1-methyl-9,9-dioxido-2-oxo-1,2,3,4,5,10-hexahydro-8H-thieno[3′,4′:3,4]pyrazolo[1,5-a][1,3]diazepin-3-yl)-1H-1,2,4-triazole-3-carboxamide]
544 nM	CN1C(=O)C(NC(=O)c2nnc(Cc3ccccc3)[nH]2)CCn2nc3c(c21)CS(=O)(=O)C3 (stereo not shown) [Example 141, 5-benzyl-N-(1-methyl-9,9-dioxido-2-oxo-1,2,3,4,5,10-hexahydro-8H-thieno[3′,4′:3,4]pyrazolo[1,5-a][1,3]diazepin-3-yl)-4H-1,2,4-triazole-3-carboxamide]
65.8 nM	CN1C(=O)C(NC(=O)c2ncn(Cc3ccccc3)n2)CCn2nc3c(c21)CSC3 (stereo not shown) [Example 142, 1-benzyl-N-(1-methyl-2-oxo-1,2,3,4,5,10-hexahydro-8H-thieno[3′,4′:3,4]pyrazolo[1,5-a][1,3]diazepin-3-yl)-1H-1,2,4-triazole-3-carboxamide]

Source: patent publication US10988459B2 (priority 2015, dated 2021)
